The record followed here is patent US5409934A, “Xanthine derivatives” (priority 1990, dated 1995).

For orientation: IC50 means the point on the concentration scale where inhibition reaches its midpoint. One may read the Km as the substrate concentration at which the rate is half of its maximum.

The target in one assay is PDE (V) (Sus scrofa, UniProt A0A287B475). Put plainly: Inhibition of phosphodiesterase PDE V (cGMP-specific), boronate column method. Particulars: 37° C., pH 7.5; read-out: Inhibition of PDE expressed as IC50, PDE (V). In kind it is biochemical, porcine. The procedure: The latter were separated by a cGMP-affinity column. The resolved PDEs were separately rechromatographed on a 1 ml Mono Q column. cGMP-selective PDE (PDE V) was obtained from porcine lung using chromatography on DEAE-cellulose and Mono Q columns; a calmodulin-affinity column was used to remove residual PDE I activity. PDEV This isoenzyme had high affinity for cGMP. […] PDE activity was assayed by the boronate column method as previously described (Reeves et al., 1987). The enzymes were assayed by incubation at 37° C. for 4-30 min in 50 mM Tris, 5 mM MgCl2, pH 7.5 with ^3 H-labelled cyclic nucleotide (4×105 disintegrations min^-1) and ^14 C-labelled nucleotide 5'-monophosphate (3×10^3 disintegrations min^-1). The assay was stopped by boiling, and the ^3 H-labelled 5'-monophosphate product separated from substrate on boronate columns. […] The column was extensively washed with the same buffer, and the 5'-nucleotide eluted with 6mL of 0.25M acetic acid.

The target in another assay is PDE (IV). Put plainly: Inhibition of phosphodiesterase PDE IV (cAMP-specific), boronate column method. Format: biochemical, guinea-pig. Particulars: cAMP as substrate, 37° C., pH 7.5; read-out: Inhibition of PDE expressed as IC50, PDE (IV). Here is the method: (§1) The Ca^2+ /calmodulin-stimulated PDE (PDE I, see Table 1 and Beavo and Reifsynder (1990) for nomenclature) was prepared from bovine cardiac ventricle. Following chromatography on a Mono Q column, the fractions showing stimulation of PDE activity by CA^2+ and calmodulin were pooled and further purified on a calmodulin-affinity column. […] Initial chromatography on a 20 ml Mono Q column resolved PDE III from a peak that contained both PDE II and PDE IV. The latter were separated by a cGMP-affinity column. The resolved PDEs were separately rechromatographed on a 1 ml Mono Q column. cGMP-selective PDE (PDE V) was obtained from porcine lung using chromatography on DEAE-cellulose and Mono Q columns; a calmodulin-affinity column was used to remove residual PDE I activity.
PDE activity was assayed by the boronate column method as previously described (Reeves et al., 1987). The enzymes were assayed by incubation at 37° C. for 4-30 min in 50 mM Tris, 5 mM MgCl2, pH 7.5 with ^3 H-labelled cyclic nucleotide (4×105 disintegrations min^-1) and ^14 C-labelled nucleotide 5'-monophosphate (3×10^3 disintegrations min^-1). The assay was stopped by boiling, and the ^3 H-labelled 5'-monophosphate product separated from substrate on boronate columns. The reaction mixture was diluted with 0.5 mL 100 mM HEPES [N-(2-hydroxyethyl)piperazine-N ^1 -2-ethanesulfonic acid], 100 mM NaCl, pH 8.5, and applied to the column. The column was extensively washed with the same buffer, and the 5'-nucleotide eluted with 6mL of 0.25M acetic acid.

In a further assay the test system is blood eosinophilia. As to the kind of experiment: Sephadex induced blood eosinophilia in the rat. In kind it is in vivo, Male Charles River Sprague Dawley rats. As to conditions: 30 min before each Sephadex injection, n = 6. Here is the method: Induction of blood eosinonhilia and the effects of drugs.
Male Charles River Sprague Dawley rats weighing between 270 to 400 g were used.
The method used was a modification of that described by Laycock et al (Int. Arch. Appl. Immunol, (1986). 81, 363).
Sephadex G200, particle size 40 to 120 micron, was suspended in isotonic saline at 0.5 mg/ml, and stored for 48 h at 4° C. 1 ml of the suspension was given intravenously to rats on days 0, 2 and 5. The test compound was given before the Sephadex on each occasion, with a contact time expected to give maximum activity at the time of the Sephadex administration. Blood was taken from the tail vein of the rats on day 7 for the determination of total and differential leucocyte counts.
A control group of at least 6 animals was included each time a compound was evaluated. The control group received Sephadex and the vehicle without test compound. The results in the drug treated animals were compared with the control group.
[…] of blood, taken from the tail vein of the rats, were added to 10 ml of Isoton II and, within 30rain, Zapoglobin (3 drops) was added, to lyse the erythrocytes. Five minutes later the total cell count was determined using a Coulter Counter Model DN. […] A minimum of 400 cells were counted on each slide.
Probability values were calculated using the Student's t test. […]

Assay [1] deals with cGMP-stimulated PDE (PDE II). Put plainly: Kinetic properties of phosphodiesterase isoenzyme II. Format: biochemical, guinea-pig. As to conditions: substrate of PDE II; enzyme displayed positive cooperativity. Here is the method:
as §1, with “Following” for “The Ca^2+ /calmodulin-stimulated PDE (PDE I, see Table 1 and Beavo and Reifsynder (1990) for nomenclature) was prepared from bovine cardiac ventricle. Following”
(§2) The assay was stopped by boiling, and the ^3 H-labelled 5'-monophosphate product separated from substrate on boronate columns. The reaction mixture was diluted with 0.5 mL 100 mM HEPES [N-(2-hydroxyethyl)piperazine-N ^1 -2-ethanesulfonic acid], 100 mM NaCl, pH 8.5, and applied to the column. The column was extensively washed with the same buffer, and the 5'-nucleotide eluted with 6mL of 0.25M acetic acid.

For assay [2], the system named is Ca^2+ /calmodulin-stimulated PDE (PDE I). Put plainly: Kinetic properties of phosphodiesterase isoenzyme I. In kind it is biochemical, bovine. Particulars: substrate of PDE I. The procedure: as §1, with “Following” for “The Ca^2+ /calmodulin-stimulated PDE (PDE I, see Table 1 and Beavo and Reifsynder (1990) for nomenclature) was prepared from bovine cardiac ventricle. Following”
as §2

Assay [3] deals with cGMP-inhibited PDE (PDE III). As to the kind of experiment: Kinetic properties of phosphodiesterase isoenzyme III. Format: biochemical, guinea-pig. As to conditions: substrate of PDE III. Here is the method: as §1, with “Following” for “The Ca^2+ /calmodulin-stimulated PDE (PDE I, see Table 1 and Beavo and Reifsynder (1990) for nomenclature) was prepared from bovine cardiac ventricle. Following”
as §2

For assay [4], the system named is cGMP-specific PDE (PDE V). As to the kind of experiment: Kinetic properties of phosphodiesterase isoenzyme V. In kind it is biochemical, porcine. As to conditions: substrate of PDE V. Here is the method:
as §1, with “Following” for “The Ca^2+ /calmodulin-stimulated PDE (PDE I, see Table 1 and Beavo and Reifsynder (1990) for nomenclature) was prepared from bovine cardiac ventricle. Following”
PDEV This isoenzyme had high affinity for cGMP.
as §2

The test system of assay [5] is cAMP-specific PDE (PDE IV). Put plainly: Kinetic properties of phosphodiesterase isoenzyme IV. Particulars: substrate of PDE IV, class symbol. In kind it is biochemical, guinea-pig. The procedure: as §1, with “Following” for “The Ca^2+ /calmodulin-stimulated PDE (PDE I, see Table 1 and Beavo and Reifsynder (1990) for nomenclature) was prepared from bovine cardiac ventricle. Following”
as §2

In the case of `Nc1nc2c(c(=O)n(CC3CC3)c(=O)n2CC2CC2)n1S(=O)(=O)c1ccccc1` [Example 1, 8-Amino-7-benzenesulphonyl-1,3-di(cyclopropylmethyl)xanthine], the IC50 was determined as 4 µM at PDE (V) and 3 µM on PDE (IV).
In the case of `COc1ccc(S(=O)(=O)n2c(N)nc3c2c(=O)n(CC2CC2)c(=O)n3CC2CC2)cc1` [Example 2, 8-Amino-1,3-di(cyclopropylmethyl)-7-(4-methoxybenzenesulphonyl)xanthine], the results for the IC50 at PDE (V) and on PDE (IV) were 0.4 µM and 3 µM, respectively. Moreover, the “Eosinophilia, % of Control Mean ± SEM” value with blood eosinophilia (20 mg/kg orally, *p < 0.05) is given as 62 ± 7 % of Control; with blood eosinophilia (50 mg/kg orally, **p < 0.01), 51 ± 7 % of Control.
For `COc1ccc(S(=O)(=O)n2c(N)nc3c2c(=O)n(CC2CC2)c(=O)n3CC2CC2)cc1OC` [Example 3, 8-Amino-1,3-di-(cyclopropylmethyl)-7-(3,4-dimethoxy-benzenesulphonyl)xanthine], the values for the IC50 on PDE (V) and on PDE (IV) were 0.2 µM and 4 µM, respectively.
Taken in the same sequence, the figures for `COc1ccc(S(=O)(=O)n2c(Cl)nc3c2c(=O)n(CC2CC2)c(=O)n3CC2CC2)cc1` [Example 7, 8-Chloro-1,3-di(cyclopropylmethyl)-7-(4-methoxybenzenesulphonyl)xanthine] were > 100 µM and 11 µM.
For `Nc1nc2c(c(=O)n(CC3CC3)c(=O)n2CC2CC2)n1S(=O)(=O)c1ccc(Cl)cc1` [Example 9, 8-Amino-1,3-di(cylcopropylmethyl)-7-(4-chlorobenzenesulphonyl)xanthine], the IC50 at PDE (IV) stood at 4 µM.
Turning to `COc1ccc(Cn2c(N(S(=O)(=O)c3ccccc3)S(=O)(=O)c3ccccc3)nc3c2c(=O)n(CC2CC2)c(=O)n3CC2CC2)cc1` [Example 23, 1,3-Di(cyclopropylmethyl)-8-di(benzenesulphonyl)amino-7-(4-methoxy-benzyl)xanthine], the IC50 on PDE (V) is 7 µM; at PDE (IV), > 100 µM.
As to `COc1ccc(S(=O)(=O)Nc2nc3c(c(=O)n(CC4CC4)c(=O)n3CC3CC3)n2Cc2cc(OC)c(OC)c(OC)c2)cc1` [Example 25, 1,3-Di(cyclopropylmethyl)-8-(4-methoxybenzenesulphonamido)-7-(3,4,5-trimethoxybenzyl)xanthine], the half-inhibitory concentration (IC50) at PDE (IV) was > 100 µM.
With `Nc1nc2c(ncn2[C@@H]2O[C@@H]3COP(=O)(O)O[C@H]3[C@H]2O)c(=O)[nH]1` [cGMP], the Km in assay [1] was 14 µM; in assay [2], 5 µM; in assay [3] it was 0.1 µM; in assay [4], 1 µM; in assay [5] it was > 100 µM.
